According to publication PMC12467382, “Synthesis and Bioevaluation of Chalcones as Broad-Spectrum Antiviral Compounds Against Single-Stranded RNA Viruses” (Biomolecules, 2025):

Test system: PIV5-GFP
Experiment: RT-qPCR of PIV5 genes (F, HN, NP) in infected Hs27 cells
Type: cell-based, parainfluenza virus 5
Settings: 10 µM before and after infection, MOI 10, normalized to actin
Experimental: Hs27 cells cultured in 6-well dishes were collected in TRIzol® (Invitrogen) followed by RNA extraction. To produce cDNA, 1 μg of total RNA was used with TaqMan® Reverse Transcription Reagents (Applied Biosystems, Foster City, CA, USA) as described in the manufacturer’s instructions. Quantitative real-time PCR was performed using Bio-Rad CFX Connect Real-Time (Bio-Rad, Hercules, CA, USA) and Fast SYBR® FAST Green Master Mix (Applied Biosystems, Foster City, CA, USA). Relative gene expression was determined using CFX Manager Software (Bio-Rad, version 2.3) and the following primers (Table 1).
To better understand how the chalcones were inhibiting virus growth, RT-qPCR was utilized to determine the effect of chalcone treatment on viral gene expression. Hs27 cells were treated with DMSO as a control or treated with 8o at a concentration of 10 µM. At 24 hpt, cells were mock infected or infected with PIV5-GFP at a high MOI and immediately replaced with media supplemented with 8o. Total RNA was collected at 2, 5, and 10 hpi and used in RT-qPCR assays to measure levels of the PIV5 genes: fusion (F) protein, hemagglutinin-neuraminidase (HN) protein, and nucleocapsid (NP) protein. Collection at various time points allows one to kinetically distinguish between the chalcone-mediated inhibition of early and late viral gene expression. Values were normalized to actin and were set relative to the DMSO-treated control of each corresponding time point.

CCOc1ccc(Br)cc1/C=C/C(=O)c1c(O)cccc1OCc1ccccc1 [Chalcone 8o]
Viral gene expression (F, HN, NP) vs DMSO-treated control at 2 hpi: minimal differences | Reduction in viral gene expression at 5 hpi (relative to DMSO): ~ 5 fold | Reduction in viral gene expression at 10 hpi (relative to DMSO): greater than 100 fold
